Four molecules from patent publication US20250387494A1, “Prodrugs Based On Tumor Targeting Near Infrared Dye-Drug Conjugates (DDC)” (Lahjavida, Inc., priority 2022, published 2025) can be followed below.

Series [1] has as its system SW620 tumor. Nature of the series: Tumor growth inhibition, intravenous tail injection. Further details: key to Tumor size: tumor size in mm^3. The class given is in vivo, mice. The note with it: for Tumor size: i.v. 10 mg/kg, second dose 15 mg/kg on Day 11; for Tumor increase rate: i.v.; for tumor growth rate: intravenous. How it is done:
(§1) Thirty-nine (39) female athymic nude mice were injected subcutaneously with 10×10^6 SW620 cells in 0.1 ml PBS with 20% Matrigel on the right flank. When the tumor size reaches within the range of approximately ˜70-200 mm^3, mice were sorted as day 0. Thirty (30) mice were randomized into five (5) groups of six (6) mice per group and dosed singly (I.V.) with the test articles or the vehicle control (This day is Day 1: treatment starts). Administrations of Vehicle (saline), NIR dye (“Dye3” in Table 2), Irinotecan, NIR dye-linker-SN38 (XV), and NIR dye-linker Doxo (XVI) are described in Table 6. Before treatment starts/randomization of mice, the 6 mice whose tumors were getting within the range first were used to determine the maximum tolerated dose (MTD) or dose level of two articles NIR day-linker-SN38 (XV), and NIR dye-linker Doxo (XVI), 3 mice for each.
(§2) Tumor size will be assessed daily, and once noticed palpably, the tumor measurements/body weight started daily up to the randomization day, and before randomization, to get 6 mice as mentioned above for the MTD study, and NIR imaging. After randomization, tumor size and body weight were assessed three times a week (M, W, F) for the duration of the study. Monitoring: a), Record BW on M, W, and F; b). Record signs of distress daily; c). Record tumor size M, W, F; d). In vivo NIR imaging (Group 1, 2, 4, and 5): Ex: 780 nm, Em: 810 nm, on day 1:0.5 hr, 2 hr, 4 hr, 8 hr post day 1 dosing, then 24 hr (day 2), then in vivo imaging, every M, W, and F, until the study ended on day 35.
(§3) The mice were injected with the said compounds either via intravenous tail injection or with intratumor injection for. Two studies were carried out: one was the compounds uptake study by the tumor as judged by the NIR imaging of both the whole mice body (FIGS. 10A, 10B, 11A, and 11B) and of the mice organs (FIGS. 12A, 12B, 13A, 13B, 14A and 14B). The injection method for these study was via intravenous tail injection. The second was the efficacy evaluation of these compounds as judged by their tumor growth inhibition, the injection method for these study was via both intravenous tail injection and intratumor injection.

For series [2], the system named is SW620 tumor. Nature of the series: Tumor growth inhibition, intratumor injection. The class given is in vivo, mice. Conditions: for Tumor increase rate: intratumor 15 mg/kg; for Tumor size / tumor growth rate: intratumor injection 15 mg/kg. The procedure: as §1, §2, §3
For series [3], the system named is 2D lung cancer cell line (A549). Kind of series: Compound uptake study by NIR mean intensity. It counts as cell-based. The note with it: 5 μM, compared with control dyes Dye 1 and Dye 2, all time points. The procedure: The tumor cells were seeded in a chamber and incubated for 24 h at 37° C. under 5% CO2. After removal of medium, cells were treated with the test materials at 5 μM concentration. When reaching the time points, cells were washed with PBS three times, then fluorescent images were taken under a fluorescent microscope.
(§4) The tumor-targeting ability and therapeutic efficacy of a four additional DDC prodrugs together with the controls of two corresponding NIR dyes, as well as two chemotherapeutic drugs were explored (Table 6) in 2D lung cancer cell line (A549) studies.
(§5) The cell lines were dosed with 5 μM of said compounds. Two studies were carried out: one was the compounds uptake study by the tumor cell line as judged by both the NIR intensity mean (FIG. 6) and by nuclei counts (FIG. 7) per well over time.

The subject of series [4] is SW620 tumor. Nature of the series: In vivo NIR fluorescent imaging of whole body and organs. The note with it: for tumor accumulation, whole body NIR imaging: intravenous tail injection, 11 days after second dosing at 15 mg/kg; for tumor accumulation, whole body NIR imaging / NIR fluorescent signal in tumor (organ imaging) / NIR signal (organ imaging): 10 s exposure. How it is done: as §1, §2
Mice were euthanized on day 35 or mice will be sacrificed when tumor size was more than 2000 mm^3. On termination day, NIR imaging of various organs of 3 mice (if the remaining mice >3) from each group 1, 2, 4 and 5. For each mouse: the tumor, heart, liver, spleen, lungs, kidneys, and brain are imaged at the same time.
as §3

The test system of series [5] is 2D lung cancer cell line (A549). Kind of series: Compound uptake/toxicity study by nuclei counts. The class given is cell-based. Conditions: 5 μM, over all the time points. The procedure: Cell viability assay was measured using Cell Titer-Glo luminescent cell ability kit via two parameters: Hoechst nuclei counts via imaging, and 2D Celltiter-glo measuring ATP content from live cells. IC50 values were calculated with a 4-variable curve analysis.
as §4, §5

Setting [6] is: Day 4 vs Day 1 (cell stands under Day 1).
Where [7] appears, read: Day 6 vs Day 4 (cell stands under Day 4).
Where [8] appears, read: Day 8 vs Day 6 (cell stands under Day 6).
The mark [9] stands for this setting: Day 11 vs Day 8 (cell stands under Day 8).
Setting [10] is: Day 13 vs Day 11 (cell stands under Day 11).
[11] abbreviates: Day 15 vs Day 13 (cell stands under Day 13).
[12] abbreviates: Day 18 vs Day 15 (cell stands under Day 15).
Where [13] appears, read: Day 20 vs Day 18 (cell stands under Day 18).

Regarding `CCCCN1/C(=C/C=C2\CCCC(/C=C/C3=[N+](CCCCS(=O)(=O)[O-])c4ccccc4C3(C)C)=C2SCCC(=O)NCCC(=O)N2Cc3ccccc3-c3nnn(CCOCCOCCOCCOCCOCCOCCOCCOCCNC(=O)COCC(=O)N[C@H](C(=O)N[C@@H](CCCNC(N)=O)C(=O)Nc4ccc(COC(=O)Oc5ccc6nc7c(c(CC)c6c5)Cn5c-7cc6c(c5=O)COC(=O)[C@]6(O)CC)cc4)C(C)C)c3-c3ccccc32)C(C)(C)c2ccccc21` [Compound XV, Dye1-PEG8-Val-Cit-PABA-SN-38], the Tumor size in the series on SW620 tumor [1] (Day 1) worked out at 163.7; in the series with SW620 tumor [1] (Day 4) it was 235.4; with SW620 tumor [1] (Day 6), 364.9; in the series with SW620 tumor [1] (Day 8), 794.5; in the series on SW620 tumor [1] (Day 11) it was 988.8; with SW620 tumor [1] (Day 13) it was 11114.9. The Tumor size in the series on SW620 tumor [1] (Day 15) was 1193.3; in the series with SW620 tumor [1] (Day 18), 1239.1; in the series with SW620 tumor [1] (Day 20), 1342.1; in the series with SW620 tumor [2] (Day 1), 163.7 mm^3; with SW620 tumor [2] (Day 4), 235.4 mm^3; in the series on SW620 tumor [2] (Day 6), 364.9 mm^3. The Tumor size is recorded as 794.5 mm^3 in the series on SW620 tumor [2] (Day 8); 988.8 mm^3 in the series with SW620 tumor [2] (Day 11); 11114.9 mm^3 in the series with SW620 tumor [2] (Day 13); 1193.3 mm^3 in the series on SW620 tumor [2] (Day 15); 1239.1 mm^3 in the series with SW620 tumor [2] (Day 18); 1342.1 mm^3 in the series on SW620 tumor [2] (Day 20). The Tumor increase rate worked out at 44% in the series on SW620 tumor [1] (setting [6]); 55% in the series with SW620 tumor [1] (setting [7]); 118% in the series on SW620 tumor [1] (setting [8]); 25% in the series with SW620 tumor [1] (setting [9]); 12.7% in the series with SW620 tumor [1] (setting [10]); 7% with SW620 tumor [1] (setting [11]). The Tumor increase rate came to 3.8% in the series with SW620 tumor [1] (setting [12]); 8.3% in the series with SW620 tumor [1] (setting [13]); 44% in the series with SW620 tumor [2] (setting [6]); 55% in the series on SW620 tumor [2] (setting [7]); 118% in the series on SW620 tumor [2] (setting [8]); 25% in the series with SW620 tumor [2] (setting [9]). The Tumor increase rate stood at 12.7% in the series with SW620 tumor [2] (setting [10]), 7% in the series on SW620 tumor [2] (setting [11]), 3.8% in the series with SW620 tumor [2] (setting [12]) and 8.3% in the series with SW620 tumor [2] (setting [13]). In addition, the tumor growth rate was determined as 4% in the series with SW620 tumor [1] (after the second dose (15 mg/kg, Day 11), low); 63% in the series on SW620 tumor [1] (before the second dose); 1% in the series with SW620 tumor [2] (as low as); 63% with SW620 tumor [2] (initial). Further, the “uptake by NIR Mean Intensity” value in series [3] is given as “taken up well”. The “tumor accumulation, whole body NIR imaging” value in the series on SW620 tumor [4] is recorded as “accumulate selectively in the tumor sites”. Also, in the series on SW620 tumor [4] (second dose 15 mg/kg, 24 hr after intravenous tail injection, auto exposure), the “organ NIR fluorescent signal” value was “the tumor showed the strongest NIR fluorescent signal among all the organs”.

For `CCCCN1/C(=C/C=C2\CCCC(/C=C/C3=[N+](CCCCS(=O)(=O)[O-])c4ccccc4C3(C)C)=C2SCCC(=O)NCCC(=O)N2Cc3ccccc3-c3nnn(CCOCCOCCOCCOCCOCCOCCOCCOCCNC(=O)COCC(=O)N[C@H](C(=O)N[C@@H](CCCNC(N)=O)C(=O)Nc4ccc(COC(=O)N[C@@H]5CC(O[C@@H]6C[C@@](O)(C(=O)CO)Cc7c(O)c8c(c(O)c76)C(=O)c6c(OC)cccc6C8=O)O[C@H](C)[C@H]5O)cc4)C(C)C)c3-c3ccccc32)C(C)(C)c2ccccc21` (stereo partly drawn) [Compound XVI, Dye1-PEG8-Val-Cit-PABA-Doxorubicin], the Tumor increase rate came out at 63% in the series on SW620 tumor [2] (Day 3 vs Day 1 (cell stands under Day 1)), 1.1% in the series with SW620 tumor [2] (Day 5 vs Day 3 (cell stands under Day 3)), 2.4% with SW620 tumor [2] (Day 8 vs Day 5 (cell stands under Day 5)) and 5.5% in the series with SW620 tumor [2] (Day 10 vs Day 8 (cell stands under Day 8)). Also, the Tumor size in the series with SW620 tumor [2] (Day 1 (Table 10 schedule)) was 855.4 mm^3; with SW620 tumor [2] (Day 3), 1393.5 mm^3; in the series with SW620 tumor [2] (Day 5) it was 1409 mm^3; in the series with SW620 tumor [2] (Day 8 (Table 10 schedule)), 1443 mm^3; in the series on SW620 tumor [2] (Day 10) it was 1523.7 mm^3. The tumor growth rate with SW620 tumor [2] (as low as) is recorded as 0.4%; in the series on SW620 tumor [2] (initial), 24%. Further, the “uptake by NIR Mean Intensity” value in series [3] was “taken up well”. Also, the “NIR fluorescent signal in tumor (organ imaging)” value is “strong NIR fluorescent signals” in the series with SW620 tumor [4] (first dose 10 mg/kg, day 17 after intravenous tail injection) and “more intense” in the series on SW620 tumor [4] (second dose 15 mg/kg, day 7 after intravenous tail injection, versus first dose day 17). Also, the “tumor accumulation, whole body NIR imaging” value with SW620 tumor [4] is on record as “accumulate selectively in the tumor sites”.

Consider `CCCCN1/C(=C/C=C2\CCCC(/C=C/C3=[N+](CCCCS(=O)(=O)[O-])c4ccccc4C3(C)C)=C2SCCC(=O)O)C(C)(C)c2ccccc21` [Dye 1], for which, in series [5], the “toxicity by Nuclei Counts” value is on record as “not toxic”. For the same molecule, the “NIR signal (organ imaging)” value with SW620 tumor [4] (first dose 4.37 mg/kg, day 17 after intravenous tail injection) is on record as “no NIR signals”; in the series on SW620 tumor [4] (second dose 4.37 mg/kg, day 7 after intravenous tail injection) it was “strong NIR signals”.

As to `COC(=O)CCSC1=C(/C=C/C2=[N+](CCCCS(=O)(=O)[O-])c3ccccc3C2(C)C)CCC/C1=C\C=C1\N(CCCCCC(=O)O)c2ccccc2C1(C)C` [Dye 2], the “toxicity by Nuclei Counts” value in series [5] was “not toxic”.
